Values after ≈ are worked out from the molar mass of the structure shown. Values belong to the compound of their own block, whether it stands above or below them.
Key:
Escherichia coli [1] = assay: Antibacterial activity against Escherichia coli ATCC 25922 assessed as reduction in microbial growth incubated for 20 hrs under aerobic condition by CLSI based broth microdilution method; format: functional
Staphylococcus aureus [2] = assay: Antibacterial activity against Staphylococcus aureus ATCC 29213 assessed as reduction in microbial growth incubated for 20 hrs under aerobic condition by CLSI based broth microdilution method; format: functional
Staphylococcus aureus [3] = assay: Antibacterial activity against Staphylococcus aureus ATCC 29213 hemB SCV assessed as reduction in microbial growth incubated for 20 hrs under aerobic condition by CLSI based broth microdilution method; format: functional
Escherichia coli [4] = assay: Antibacterial activity against Escherichia coli MC4100 assessed as reduction in bacterial growth by CLSI based broth microdilution method; format: functional
Escherichia coli [5] = assay: Antibacterial activity against Escherichia coli MC4100 harbouring acrAB mutant assessed as reduction in bacterial growth by CLSI based broth microdilution method; format: functional
Escherichia coli [6] = assay: Antibacterial activity against Escherichia coli MC4100 harbouring lptD mutant assessed as reduction in bacterial growth by CLSI based broth microdilution method; format: functional
Escherichia coli [7] = assay: Antibacterial activity against Escherichia coli producing extended spectrum beta-lactamase CTX-M-15 assessed as reduction in microbial growth incubated for 20 hrs under aerobic condition by CLSI based broth microdilution method; format: functional
[8] = Inhibition of Escherichia coli ATCC 25922 ATP synthase activity preincubated for 30 mins followed by NADH/ADP addition and measured after 60 mins by luciferin/luciferase luminescence assay
[9] = Inhibition of Staphylococcus aureus ATCC 29213 ATP synthase activity preincubated for 30 mins followed by NADH/ADP addition and measured after 60 mins by luciferin/luciferase luminescence assay
[10] = Inhibition of mitochondrial ATP synthase in human HepG2 cells preincubated for 30 mins followed by NADH/ADP addition and measured after 60 mins by luminescence assay; format: cell-based
Staphylococcus aureus [11] = assay: Antibacterial activity against methicillin resistant Staphylococcus aureus ATCC BAA-41/USA-100 assessed as reduction in microbial growth incubated for 20 hrs under aerobic condition by CLSI based broth microdilution method; format: functional
Staphylococcus aureus [12] = assay: Antibacterial activity against methicillin resistant Staphylococcus aureus ATCC 700699/Mu50 assessed as reduction in microbial growth incubated for 20 hrs under aerobic condition by CLSI based broth microdilution method; format: functional
Escherichia coli [13] = assay: Antibacterial activity against NDM1-producing carbapenem-resistant Escherichia coli ATCC BAA-2471 assessed as reduction in microbial growth incubated for 20 hrs under aerobic condition by CLSI based broth microdilution method; format: functional
Escherichia coli [14] = assay: Antibacterial activity against Escherichia coli producing extended spectrum beta-lactamase KPC assessed as reduction in microbial growth incubated for 20 hrs under aerobic condition by CLSI based broth microdilution method; format: functional
Escherichia coli [15] = assay: Antibacterial activity against colistin resistant Escherichia coli harboring mcr-1 gene assessed as reduction in microbial growth incubated for 20 hrs under aerobic condition by CLSI based broth microdilution method; format: functional
Staphylococcus aureus [16] = assay: microbe, parasite or virus in culture; conditions: ATCC 700699/Mu50, 20 h
Description: Antibacterial activity against antibiotic intermediately resitant/methicillin resistant Staphylococcus aureus ATCC 700699/Mu50 assessed as reduction in microbial growth incubated for 20 hrs under aerobic condition by CLSI based broth microdilution method

Staphylococcus aureus [17] = assay: Antibacterial activity against Staphylococcus aureus ATCC 29213 SCV assessed as reduction in microbial growth by CLSI based broth microdilution method; format: functional
Staphylococcus aureus [18] = assay: Antibacterial activity against wild type Staphylococcus aureus ATCC 29213 assessed as reduction in microbial growth by CLSI based broth microdilution method; format: functional
Escherichia coli [19] = assay: Selectivity ratio of MIC for Escherichia coli MC4100 to MIC for Escherichia coli MC4100 harbouring acrAB mutant; format: toxicity, organism-based; conditions: in vivo
Escherichia coli [20] = assay: Antibacterial activity against Escherichia coli ATCC 25922 assessed as fold decrease in MIC for 20 hrs under aerobic condition by CLSI based broth microdilution method; format: functional
Staphylococcus aureus [21] = assay: Antibacterial activity against Staphylococcus aureus ATCC 29213 assessed as fold decrease in MIC incubated for 20 hrs under aerobic condition by CLSI based broth microdilution method; format: functional

Compound: C[C@H]1CC[C@]2(NC1)O[C@H]1C[C@H]3[C@@H]4CC[C@H]5CC(NC[C@@H](N)Cc6ccc(Cl)c(Cl)c6)CC[C@]5(C)[C@H]4CC[C@]3(C)[C@H]1[C@@H]2C (mixture of isomers)
- MIC (Escherichia coli [1]): 4 µg/mL
- MIC (Staphylococcus aureus [2]): 1 µg/mL
- MIC (Staphylococcus aureus [3]): 0.5 µg/mL
- MIC (Escherichia coli [4]): 8 µg/mL
- MIC (Escherichia coli [5]): 4 µg/mL
- MIC (Escherichia coli [6]): 2 µg/mL
- MIC (Escherichia coli [7]): 4 µg/mL
- IC50 [8]: 1950 nM
- IC50 [9]: 830 nM
- IC50 [10]: 13900 nM
- MIC (Staphylococcus aureus [11]): 2 µg/mL
- MIC (Staphylococcus aureus [12]): 1 µg/mL
- MIC (Escherichia coli [13]): 8 µg/mL
- MIC (Escherichia coli [14]): 8 µg/mL
- MIC (Escherichia coli [15]): 8 µg/mL

Compound: CN[C@H](CC(C)C)C(=O)N[C@H]1C(=O)N[C@@H](CC(N)=O)C(=O)N[C@H]2C(=O)N[C@H]3C(=O)N[C@H](C(=O)N[C@H](C(=O)O)c4cc(O)cc(O)c4-c4cc3ccc4O)[C@H](O)c3ccc(c(Cl)c3)Oc3cc2cc(c3O[C@@H]2O[C@H](CO)[C@@H](O)[C@H](O)[C@H]2O[C@H]2C[C@](C)(N)[C@H](O)[C@H](C)O2)Oc2ccc(cc2Cl)[C@H]1O [VANCOMYCIN]
- MIC (Staphylococcus aureus [16]): 8 µg/mL (≈ 5.52 µM)

Compound: C[C@H]1CC[C@]2(NC1)O[C@H]1C[C@H]3[C@@H]4CC[C@H]5C[C@@H](O)CC[C@]5(C)[C@H]4CC[C@]3(C)[C@H]1[C@@H]2C [TOMATIDINE]
- MIC (Escherichia coli [1]): > 128 µg/mL
- MIC (Staphylococcus aureus [2]): > 64 µg/mL
- MIC (Staphylococcus aureus [3]): 0.06 µg/mL
- MIC (Staphylococcus aureus [17]): 0.06 µg/mL
- MIC (Staphylococcus aureus [18]): > 64 µg/mL

Compound: C[C@H]1CC[C@]2(NC1)O[C@H]1C[C@H]3[C@@H]4CC[C@H]5CC(NC[C@@H](N)Cc6ccc(O)cc6)CC[C@]5(C)[C@H]4CC[C@]3(C)[C@H]1[C@@H]2C (mixture of isomers)
- MIC (Escherichia coli [1]): 64 µg/mL
- MIC (Staphylococcus aureus [2]): 8 µg/mL
- MIC (Staphylococcus aureus [3]): 0.25 µg/mL
- MIC (Escherichia coli [4]): > 128 µg/mL
- MIC (Escherichia coli [5]): 16 µg/mL
- MIC (Escherichia coli [6]): 8 µg/mL
- IC50 [8]: 1600 nM
- Selectivity ratio (Escherichia coli [19]): > 8

- MIC (Escherichia coli [1]): > 128 µg/mL
- MIC (Staphylococcus aureus [2]): 16 µg/mL
Compound: C[C@H]1CC[C@]2(NC1)O[C@H]1C[C@H]3[C@@H]4CC[C@H]5CC(NC[C@@H]6Cc7ccccc7CN6)CC[C@]5(C)[C@H]4CC[C@]3(C)[C@H]1[C@@H]2C (mixture of isomers)
- fold change (FC) (Escherichia coli [20]): 2
- fold change (FC) (Staphylococcus aureus [21]): 2
